Test results published in US20230135635A1, “INHIBITORS OF ULK1/2 AND METHODS OF USING SAME” (SALK INSTITUTE FOR BIOLOGICAL STUDIES, priority 2020, published 2023).

These molecules were tested against T1, recombinant human ULK1 protein (1-649) (Homo sapiens, UniProt O75385) (assay: ULK1 inhibition assay (ADP Glo)). Conditions: Table 2.
T1 construct: recombinant human ULK1 protein (1-649, SignalChem #U01-11G); purchased SignalChem U01-11G
T1 sequence (O75385 1-649): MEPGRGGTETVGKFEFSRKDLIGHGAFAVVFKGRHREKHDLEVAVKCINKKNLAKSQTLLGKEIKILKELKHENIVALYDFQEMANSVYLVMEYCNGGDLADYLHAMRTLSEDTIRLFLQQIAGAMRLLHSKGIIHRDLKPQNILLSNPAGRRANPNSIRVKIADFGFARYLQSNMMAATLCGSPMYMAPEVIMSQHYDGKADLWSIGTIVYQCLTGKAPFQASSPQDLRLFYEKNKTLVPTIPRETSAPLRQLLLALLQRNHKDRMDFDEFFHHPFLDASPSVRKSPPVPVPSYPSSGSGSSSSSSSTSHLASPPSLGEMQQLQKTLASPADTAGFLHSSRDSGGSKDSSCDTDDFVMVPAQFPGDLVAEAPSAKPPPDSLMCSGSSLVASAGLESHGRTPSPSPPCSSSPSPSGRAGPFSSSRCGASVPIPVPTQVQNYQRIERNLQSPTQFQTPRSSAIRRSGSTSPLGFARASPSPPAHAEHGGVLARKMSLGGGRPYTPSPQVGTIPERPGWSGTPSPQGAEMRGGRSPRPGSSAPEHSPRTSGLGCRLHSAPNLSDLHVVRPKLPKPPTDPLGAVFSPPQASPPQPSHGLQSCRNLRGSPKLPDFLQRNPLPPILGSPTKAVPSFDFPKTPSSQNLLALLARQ
Assay type: biochemical
Method in brief: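 Recombinant ULK1 (2 ug/mL) phosphorylated myelin basic protein (80 ug/mL) at 25 uM ATP; ADP formed was detected by ADP-Glo after 1 h. Compounds ran in triplicate, 16-dose 3-fold serial dilution from 30 uM, to give IC50.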

`COC(=O)c1ccccc1Oc1nc(Nc2ccc(O)c(O)c2)ncc1Br` [Compound B46] and `COC(=O)c1ccccc1Oc1nc(Nc2ccc(N3CCNCC3)cc2)ncc1Br` [Compound B47] cannot be ordered by IC50: greater than 1000 nM for the first, greater than 1000 nM for the second.

`COC(=O)c1ccccc1Oc1ncnc(Nc2cc(OC)c(OC)c(OC)c2)n1` [Compound B48] and `COc1cc(Nc2ncc(Br)c(Oc3ccccc3C(=O)N3CCC3)n2)cc(OC)c1OC` [Compound B50] cannot be ordered by IC50: greater than 1000 nM for the first, greater than 1000 nM for the second.

`COc1cc(Nc2ncc(Br)c(Oc3ccccc3C(=O)N(C)CC(C)(C)O)n2)cc(OC)c1OC` [Compound B49] and `CNC(=O)c1ccccc1Oc1nc(Nc2ccc3c(c2)OCO3)ncc1C(F)(F)F` [Compound B52, 2-((2-(Benzo[d][1,3]dioxol-5-ylamino)-5-(trifluoromethyl)pyrimidin-4-yl)oxy)-N-methyl benzamide] cannot be ordered by IC50: greater than 1000 nM for the first, greater than 1000 nM for the second.

`CNC(=O)c1ccccc1Oc1nc(Nc2ccc3c(c2)OCCO3)ncc1C(F)(F)F` [Compound B51, 2-((2-((2,3-Dihydrobenzo[b][1,4]dioxin-6-yl)amino)-5-(trifluoromethyl)pyrimidin-4-yl)oxy)-N-methylbenzamide] and `Oc1nc(Nc2ccc3c(c2)OCO3)ncc1C(F)(F)F` [Compound B53, 2-(Benzo[d][1,3]dioxol-5-ylamino)-5-(trifluoromethyl)pyrimidin-4-ol] cannot be ordered by IC50: greater than 1000 nM for the first, greater than 1000 nM for the second.

Same assay, conditions: Table 3

First: COc1cc(Nc2ncc(Br)c(Oc3ccccc3CO)n2)cc(OC)c1OC [Compound C1]
Second: COCc1ccccc1Nc1nc(Nc2cc(OC)c(OC)c(OC)c2)ncc1Br [Compound C2]
The IC50 of the first is higher: greater than 100 nM for the first, less than 5 nM for the second.

Compared with `COc1cc(Nc2ncc(C(F)(F)F)c(Nc3ccccc3CO)n2)cc(OC)c1OC` [Compound C3], `COc1cc(Nc2ncc(Br)c(Nc3ccccc3C(=O)NCC(F)(F)F)n2)cc(OC)c1OC` [Compound E23, 2-((5-Bromo-2-((3,4,5-trimethoxyphenyl)amino)pyrimidin-4-yl)amino)-N-(2,2,2-trifluoroethyl)benzamide] is higher in IC50: less than 5 nM for the first, 5 to 100 nM for the second.

First: OCc1ccccc1Nc1nc(Nc2ccccc2)ncc1Br [Compound C4]
Second: COc1cccc(Nc2ncc(Br)c(Nc3ccccc3CO)n2)c1 [Compound C6]
The IC50 of the first is higher: greater than 100 nM for the first, less than 5 nM for the second.

`COc1ccc(Nc2ncc(Br)c(Nc3ccccc3CO)n2)cc1` [Compound C5] and `OCc1ccccc1Nc1nc(Nc2ccc(OC(F)F)cc2)ncc1Br` [Compound C8] fall in the same range of IC50: 5 to 100 nM for the first, 5 to 100 nM for the second.

Compared with `CC(=O)Nc1ccc(Nc2ncc(Br)c(Nc3ccccc3CO)n2)cc1` [Compound C7], `O=C(Nc1ccc(Nc2ncc(Br)c(Nc3ccccc3CO)n2)cc1)C1CC1` [Compound C12] is lower in IC50: 5 to 100 nM for the first, less than 5 nM for the second. The second is the more potent here.

`CN1CCN(c2ccc(Nc3ncc(Br)c(Nc4ccccc4CO)n3)cc2)CC1` [Compound C9] and `CN(C)c1ccc(Nc2ncc(Br)c(Nc3ccccc3CO)n2)cc1` [Compound C11] cannot be ordered by IC50: less than 5 nM for the first, less than 5 nM for the second.

First: COc1cc(Oc2ncc(Br)c(Nc3ccccc3CO)n2)cc(OC)c1OC [Compound C10]
Second: COc1cc(Nc2ncc(Br)c(Nc3ccccc3COC(C)=O)n2)cc(OC)c1OC [Compound C17]
The IC50 of the first is higher: greater than 100 nM for the first, 5 to 100 nM for the second.

First: COc1cc(Nc2nccc(Nc3ccccc3CN)n2)cc(OC)c1OC [Compound C13]
Second: COc1cc(Nc2ncc(Br)c(Nc3ccccc3CN(C)C)n2)cc(OC)c1OC [Compound C18]
The IC50 of the first is higher: greater than 100 nM for the first, 5 to 100 nM for the second. The second is the more potent here.

First: NC(=O)c1ccc(Nc2ncc(Br)c(Nc3ccccc3CO)n2)cc1 [Compound C14]
Second: OCCN(CCO)c1ccc(Nc2ncc(Br)c(Nc3ccccc3CO)n2)cc1 [Compound C16]
The IC50 of the first is higher: 5 to 100 nM for the first, less than 5 nM for the second.

`NCCCNc1ncc(Br)c(Nc2ccccc2CO)n1` [Compound C15] and `COc1cc(Nc2ncc(Br)c(Nc3ccccc3CN(C)CCO)n2)cc(OC)c1OC` [Compound C23] cannot be ordered by IC50: greater than 100 nM for the first, greater than 100 nM for the second.

First: COc1cc(Nc2ncc(Br)c(Nc3ccccc3COCC(=O)N(C)C)n2)cc(OC)c1OC [Compound C19]
Second: COc1cc(Nc2ncc(Br)c(Nc3ccccc3CN(C)CC#N)n2)cc(OC)c1OC [Compound C26]
The IC50 of the first is higher: greater than 100 nM for the first, 5 to 100 nM for the second.

`COc1cc(Nc2ncc(Br)c(Nc3ccccc3CN3CCN(C)CC3)n2)cc(OC)c1OC` [Compound C20] and `COc1cc(Nc2ncc(Br)c(Nc3ccccc3CN3CCN(S(C)(=O)=O)CC3)n2)cc(OC)c1OC` [Compound C22] cannot be ordered by IC50: greater than 100 nM for the first, greater than 100 nM for the second.

Compared with `COc1cc(Nc2ncc(Br)c(Nc3ccccc3COC(=O)N3CCOCC3)n2)cc(OC)c1OC` [Compound C21], `COc1cc(Nc2ncc(Br)c(Nc3ccccc3CNCC(N)=O)n2)cc(OC)c1OC` [Compound C25] is lower in IC50: greater than 100 nM for the first, 5 to 100 nM for the second. The second is the more potent here.

First: COc1cc(Nc2ncc(Br)c(Nc3ccccc3CNC3CC3)n2)cc(OC)c1OC [Compound C24]
Second: COc1cc(Nc2ncc(Br)c(Nc3ccccc3SC)n2)cc(OC)c1OC [Compound E3]
The IC50 of the first is higher: greater than 100 nM for the first, 5 to 100 nM for the second.

Compared with `COc1cc(Nc2ncc(Br)c(Nc3ccccc3CN(CCO)CCO)n2)cc(OC)c1OC` [Compound C27], `COc1cc(Nc2ncc(Br)c(Nc3ccccc3C(=O)O)n2)cc(OC)c1OC` [Compound E2] is lower in IC50: 5 to 100 nM for the first, less than 5 nM for the second.

`COc1cc(Nc2ncc(Br)c(Oc3ccc(NC(=O)C4(C(=O)Nc5ccc(F)cc5)CC4)cc3F)n2)cc(OC)c1OC` [Compound C28, N-(4-((5-Bromo-2-((3,4,5-trimethoxyphenyl)amino)pyrimidin-4-yl)oxy)-3-fluorophenyl)-N-(4-fluorophenyl)cyclopropane-1,1-dicarboxamide] and `COc1cc(Nc2ncc(Br)c(Oc3ccc(NC(=O)CC(=O)Nc4ccc(F)cc4)cc3F)n2)cc(OC)c1OC` [Compound C29, N^1-(4-((5-Bromo-2-((3,4,5-trimethoxyphenyl)amino)pyrimidin-4-yl)oxy)-3-fluorophenyl)-N^3-(4-fluorophenyl)malonamide] cannot be ordered by IC50: greater than 100 nM for the first, greater than 100 nM for the second.

First: O=c1[nH]c2ccc(Nc3ncc(C(F)(F)F)c(NC4CC4)n3)cc2[nH]1 [Compound D1]
Second: NCc1ccc(Nc2ncc(C(F)(F)F)c(NC3CC3)n2)cc1 [Compound D3]
The IC50 of the first is higher: 5 to 100 nM for the first, less than 5 nM for the second. The second is the more potent here.

First: O=C(NCc1ccc(Nc2ncc(C(F)(F)F)c(NC3CC3)n2)cc1)OCc1ccccc1 [Compound D2]
Second: CC(=O)NCc1ccc(Nc2ncc(C(F)(F)F)c(NC3CC3)n2)cc1 [Compound D5]
The IC50 of the first is lower: less than 5 nM for the first, 5 to 100 nM for the second.

`CN(C)Cc1ccc(Nc2ncc(C(F)(F)F)c(NC3CC3)n2)cc1` [Compound D4] and `CN(C)C1Cc2ccc(Nc3ncc(C(F)(F)F)c(NC4CC4)n3)cc2C1` (stereo not drawn) [Compound D6] cannot be ordered by IC50: less than 5 nM for the first, less than 5 nM for the second.

First: COC(=O)c1ccccc1Nc1nc(Nc2cc(OC)c(OC)c(OC)c2)ncc1Br [Compound E1]
Second: COc1cc(Nc2ncc(Br)c(Nc3ccccc3C(=O)NCC(F)F)n2)cc(OC)c1OC [Compound E22, 2-((5-Bromo-2-((3,4,5-trimethoxyphenyl)amino)pyrimidin-4-yl)amino)-N-(2,2-difluoroethyl)benzamide]
The IC50 of the first is lower: less than 5 nM for the first, 5 to 100 nM for the second. The first is the more potent here.

First: CNC(=O)c1ccccc1Nc1cc(C#N)nc(Nc2cc(OC)c(OC)c(OC)c2)n1 [Compound E8, 2-((6-Cyano-2-((3,4,5-trimethoxyphenyl)amino)pyrimidin-4-yl)amino)-N-methylbenzamide]
Second: CNC(=O)c1ccccc1Nc1nc(Nc2ccc(OC)c(OC)c2)ncc1Br [Compound E16, 2-((5-Bromo-2-((3,4-dimethoxyphenyl)amino)pyrimidin-4-yl)amino)-N-methylbenzamide]
The IC50 of the first is higher: greater than 100 nM for the first, 5 to 100 nM for the second.

First: CNC(=O)c1ccccc1Nc1nc(Nc2cccc(OC)c2)ncc1Br [Compound E14, 2-((5-Bromo-2-((3-methoxyphenyl)amino)pyrimidin-4-yl)amino)-N-methylbenzamide]
Second: CNC(=O)c1ccccc1Nc1nc(Nc2cccc(OC(F)F)c2)ncc1Br [Compound E20, 2-((5-Bromo-2-((3-(difluoromethoxy)phenyl)amino)pyrimidin-4-yl)amino)-N-methylbenzamide]
The IC50 of the first is lower: 5 to 100 nM for the first, greater than 100 nM for the second.

`CNC(=O)c1ccccc1Nc1nc(Nc2ccc(OC)cc2)ncc1Br` [Compound E15, 2-((5-Bromo-2-((4-methoxyphenyl)amino)pyrimidin-4-yl)amino)-N-methylbenzamide] and `CNC(=O)c1ccccc1Nc1nc(Nc2ccc(OC(F)F)cc2)ncc1Br` [Compound E18, 2-((5-Bromo-2-((4-(difluoromethoxy)phenyl)amino)pyrimidin-4-yl)amino)-N-methylbenzamide] cannot be ordered by IC50: greater than 100 nM for the first, greater than 100 nM for the second.

`CNC(=O)c1ccccc1Nc1nc(Nc2cc(OC)cc(OC)c2)ncc1Br` [Compound E17, 2-((5-Bromo-2-((3,5-dimethoxyphenyl)amino)pyrimidin-4-yl)amino)-N-methylbenzamide] and `CNC(=O)c1ccccc1Nc1nc(Nc2cccc(OC(F)(F)F)c2)ncc1Br` [Compound E21, 2-((5-Bromo-2-((3-(trifluoromethoxy)phenyl)amino)pyrimidin-4-yl)amino)-N-methylbenzamide] fall in the same range of IC50: 5 to 100 nM for the first, 5 to 100 nM for the second.

`CNC(=O)c1ccccc1Nc1nc(Nc2ccc(OC(F)(F)F)cc2)ncc1Br` [Compound E19, 2-((5-Bromo-2-((4-(trifluoromethoxy)phenyl)amino)pyrimidin-4-yl)amino)-N-methylbenzamide] gave an IC50 greater than 100 nM.
